# Assay results taken from patent publication US20130131321A1, “LIGANDS FOR ANTIBODY AND Fc-FUSION PROTEIN PURIFICATION BY AFFINITY CHROMATOGRAPHY” (GRAFFINITY PHARMACEUTICALS GMBH, priority 2010, published 2013).
# Where two headings read alike, the source gives them in different places.
# Legend:
# [1] = biological target: T1, Bevacizumab (Homo sapiens, UniProt P01857); experiment: Microtiter plate chromatography of resins, Bevacizumab whole IgG (bound, yield, selectivity); type: binding, humanized; details: for Bevacizumab IgG Bound (%): fraction of injected whole IgG bound to resin; for Bevacizumab IgG Yield (%): mass eluted / mass injected, whole IgG
# T1 construct: fused on or other part: humanised anti-VEGF-A VH domain N-terminal of the gamma-1 constant region (engineered, no UniProt entry)
# [2] = system: Bevacizumab; experiment: as above; type: binding, humanized
# [3] = system: Tocilizumab; experiment: Microtiter plate chromatography of resins, Tocilizumab (bound, yield); type: binding, humanized; details: for Tocilizumab Bound (%): fraction of injected protein bound to resin; for Tocilizumab Yield (%): mass eluted / mass injected
# [4] = system: Palivizumab; experiment: Microtiter plate chromatography of resins, Palivizumab (bound, yield); type: binding, humanized; details: for Palivizumab Bound (%): fraction of injected protein bound to resin; for Palivizumab Yield (%): mass eluted / mass injected
# [5] = system: human poly-IgG (h-poly-IgG); experiment: Microtiter plate chromatography of resins, human poly-IgG (bound, yield); type: binding; details: for h-poly-IgG Bound (%): fraction of injected protein bound to resin; for h-poly-IgG Yield (%): mass eluted / mass injected
# [6] = system: host cell proteins (HCP); experiment: Microtiter plate chromatography of resins, host cell proteins (bound); type: binding, CHO; details: fraction of injected host cell proteins bound to resin
# [7] = bound Bevacizumab whole IgG / bound HCP, truncated beyond values of 10
Structure (SMILES),Bevacizumab IgG Bound (%) [1],Bevacizumab IgG Yield (%) [1],"Selectivity [2, 7]",Tocilizumab Bound (%) [3],Tocilizumab Yield (%) [3],Palivizumab Bound (%) [4],Palivizumab Yield (%) [4],h-poly-IgG Bound (%) [5],h-poly-IgG Yield (%) [5],HCP Bound (%) [6],Selectivity [2]
"COc1ccc(NC(=O)c2nnc(-c3ccco3)o2)cc1C(=O)NCCOCCOCC(=O)NCCOCCOCC(=O)NCCCN [Ligand L67, 8-{8-{5-[5-(2-Furyl)-1,3,4-oxadiazol-2-ylcarboxamido]-2-methoxyphenylcarboxamido}-3,6-dioxaoctanoylamido}-3,6-dioxaoctanoic acid (3-amino-1-propyl)amide]",100%,100%,10.0,91%,86%,81%,80%,89%,87%,2%,–
"COc1ccc(NC(=O)c2cc(-c3csc(C)n3)on2)cc1C(=O)NCCOCCOCC(=O)NCCOCCOCC(=O)NCCCN [Ligand L68, 8-{8-{2-Methoxy-5-[5-(2-methylthiazol-4-yl)isoxazol-3-ylcarboxamido]phenylcarboxamido}-3,6-dioxaoctanoylamido}-3,6-dioxaoctanoic acid (3-amino-1-propyl)amide]",100%,100%,10.0,71%,71%,65%,65%,65%,65%,4%,–
"COc1ccc(NC(=O)c2cn3ccsc3n2)cc1C(=O)NCCOCCOCCNC(=O)NCCOCCOCCN [Ligand L69, N-(8-Amino-3,6-dioxaoctyl)-N′-{8-[5-(imidazo[2,1-b]thiazol-6-ylcarboxamido)-2-methoxyphenylcarboxamido]-3,6-dioxaoctyl}urea]",100%,100%,10.0,78%,73%,45%,45%,63%,63%,2%,–
"NCCCNC(=O)c1cccc(C(=O)Nc2nnc(-c3ccco3)s2)c1 [Ligand L70, Isophthalic acid N-(3-aminopropyl)-N′-[5-(2-furyl)-1,3,4-thiadiazol-2-yl]amide]",100%,83%,–,100%,100%,55%,55%,64%,64%,19%,5.4
"Cn1nc(NC(=O)c2cccc(C(=O)NCCCN)c2)c2ccccc21 [Ligand L71, Isophthalic acid N-(3-aminopropyl)-N′-(1-methylindazol-3-yl)amide]",100%,88%,–,51%,49%,24%,24%,45%,45%,25%,4.0
"NCCCNC(=O)c1cccc(C(=O)Nc2nc3ccccc3s2)c1 [Ligand L72, Isophthalic acid N-(3-aminopropyl)-N′-(benzothiazol-2-yl)amide]",100%,83%,–,93%,93%,91%,91%,90%,90%,40%,2.5
"NCCCNC(=O)c1cccc(C(=O)Nc2nc(-c3ccccc3)cs2)c1 [Ligand L73, Isophthalic acid N-(3-aminopropyl)-N′-(4-phenylthiazol-2-yl)amide]",100%,92%,–,97%,95%,87%,87%,92%,87%,52%,1.9
"NCCCNC(=O)c1cccc(C(=O)Nc2ncc(-c3ccccc3)s2)c1 [Ligand L74, Isophthalic acid N-(3-aminopropyl)-N′-(5-phenylthiazol-2-yl)amide]",100%,96%,–,97%,91%,88%,86%,91%,90%,53%,1.9
"COc1ccc(NC(=O)c2cn3ccsc3n2)cc1C(=O)NCCCNC(=O)CCCCCN [Ligand L75, 5-(Imidazo[2,1-b]thiazol-6-ylcarboxamido)-2-methoxybenzoic acid [3-(6-aminohexanoylamido)-1-propyl]amide]",100%,97%,–,100%,98%,91%,91%,90%,90%,18%,5.7
"COc1ccc(NC(=O)c2cn3ccsc3n2)cc1C(=O)NCCCCCC(=O)NCCOCCOCCN [Ligand L76, 6-[5-(Imidazo[2,1-b]thiazol-6-ylcarboxamido)-2-methoxyphenylcarboxamido]hexanoic acid (8-amino-3,6-dioxa-1-octyl)amide]",100%,98%,10.0,93%,89%,59%,59%,73%,73%,9%,–
"COc1ccc(NC(=O)c2cn3ccsc3n2)cc1C(=O)NCCOCCOCC(=O)NCCCN [Ligand L77, 8-[5-(Imidazo-[2,1-b]thiazol-6-ylcarboxamido)-2-methoxyphenylcarboxamido]-3,6-dioxaoctanoic acid (3-amino-1-propyl)amide]",100%,96%,10.0,80%,80%,55%,55%,65%,65%,10%,–
"COc1ccc(NC(=O)c2cn3ccsc3n2)cc1C(=O)NCCOCCOCC(=O)NCCCCCCN [Ligand L78, 8-[5-(Imidazo-[2,1-b]thiazol-6-ylcarboxamido)-2-methoxyphenylcarboxamido]-3,6-dioxaoctanoic acid (6-amino-1-hexyl)amide]",100%,94%,–,94%,94%,61%,61%,76%,76%,14%,7.4
